In US10829464B2, “Benzoheterocyclic alkylamine compounds and use thereof” (priority 2016, dated 2020):

The compounds below were run on S. aureus strain Newman (assay: IC50 determination of inhibition of staphyloxanthin synthesis). Conditions: Staphylococcus aureus; S. aureus strain Newman, Table 1; read-out: IC50, inhibitory activity on staphyloxanthin synthesis.
Type: cell-based
Procedure: Selection of compound concentrations: based on the preliminary screening results, the ability of each compound to inhibit staphyloxanthin synthesis was determined. […] According to the assay results, 10 different concentration gradients were designed for each compound, such that the ability to inhibit staphyloxanthin synthesis comprised substantially from 0% to 100%.
Culture of the strains: single colonies of strain Newman and crtN mutant strain were picked from TSA plates, added into test tubes containing 4 mL of sterile TSB medium, and cultured at 37° C. and 250 rpm for 12 h for later use.
The relative level of staphyloxanthin synthesis at each concentration of the compound of the invention=A450 (sample)/A450 (negative control)*100%. With the molar concentration of the compound as the abscissa and the relative level of staphyloxanthin synthesis as the ordinate, a curve fitting of inhibitor concentration-inhibition rate (log(inhibitor) vs response) was performed in Graphpad prism 5.0 software, and the IC50 of the compound for inhibiting staphyloxanthin synthesis was calculated by software based on the fitting results.
S. aureus was selected for IC50 determination with respect to activity of inhibiting staphyloxanthin synthesis. […]

Compound | IC50 [nM]
COc1ccc(/C=C/CN(C)Cc2coc3ccccc23)c(F)c1 [Compound IA-35, (E)-N-methyl-N-[(benzofuran-3-yl)methylene]-3-(2-fluoro-4-methoxyphenyl)-prop-2-en-1-amine] | > 1000
CCOc1ccc(/C=C/CN(C)Cc2coc3ccccc23)cc1 [Compound IA-17, (E)-N-methyl-N-[(benzofuran-3-yl)methylene]-3-(4-ethoxyphenyl)-prop-2-en-1-amine] | > 1000
CN(C/C=C/c1ccc(C(F)F)cc1)Cc1coc2ccccc12 [Compound IA-6, (E)-N-methyl-N-[(benzofuran-3-yl)methylene]-3-(4-difluoromethylphenyl)-prop-2-en-1-amine] | 6.4 ± 0.1
CN(CCCc1ccc(-c2ccccc2)cc1)Cc1coc2ccccc12 [Compound IE-1, 3-([1,1′-biphenyl]-4-yl)-N-(benzofuran-3-ylmethyl)-N-methylpropan-1-amine] | > 1000
COc1cccc(/C=C/CN(C)Cc2coc3ccccc23)c1 [Compound IA-20, (E)-N-methyl-N-[(benzofuran-3-yl)methylene]-3-(3-methoxyphenyl)-prop-2-en-1-amine] | > 1000
CN(C/C=C/c1ccccc1Cl)Cc1coc2ccccc12 [Compound IA-8, (E)-N-methyl-N-[(benzofuran-3-yl)methylene]-3-(2-chlorophenyl)prop-2-en-1-amine] | 360 ± 57.8
COC(=O)c1ccc(/C=C/CN(C)Cc2coc3ccccc23)cc1 [Compound IA-13, (E)-N-methyl-N-[(benzofuran-3-yl)methylene]-3-(4-methylcarboxylatephenyl)prop-2-en-1-amine] | 9.45 ± 0.75
CN(C/C=C/C1CCCCC1)Cc1coc2ccccc12 [Compound IA-32] | > 1000
CN(C/C=C/c1ccccc1)Cc1coc2ccccc12 [Compound IA-1, (E)-N-methyl-N-[(benzofuran-3-yl)methylene]-3-phenylprop-2-en-1-amine] | > 1000
CN(C/C=C/C1CCCC1)Cc1coc2ccccc12 [Compound IA-7, (E)-N-methyl-N-[(benzofuran-3-yl)methylene]-3-(4-cyclopentyl)prop-2-en-1-amine] | 397 ± 20.3
FC(F)(F)c1ccc(/C=C/CNCc2coc3ccccc23)cc1 [Compound IB-1] | > 1000
CN(C/C=C/c1ccco1)Cc1coc2ccccc12 [Compound IA-14] | > 1000
CN(C/C=C/c1ccc(C(F)(F)F)cc1)Cc1cc2ccccc2o1 [Compound IF-1, (E)-N-(benzofuran-2-ylmethyl)-N-methyl-3-(4-(trifluoromethyl)phenyl)prop-2-en-1-amine] | 70.3 ± 5.2
CN(C/C=C/c1ccc(Br)cc1)Cc1coc2ccccc12 [Compound IA-5, (E)-N-methyl-N-[(benzofuran-3-yl)methylene]-3-(4-bromophenyl)prop-2-en-1-amine] | 2.5 ± 0.3
CN(CC#Cc1ccc(-c2ccccc2)cc1)Cc1coc2ccccc12 [Compound ID-1] | > 1000
CN(C/C=C/c1ccccc1C(F)(F)F)Cc1coc2ccccc12 [Compound IA-30, (E)-N-methyl-N-[(benzofuran-3-yl)methylene]-3-(2-trifluoromethylphenyl)-prop-2-en-1-amine] | > 1000
COc1ccccc1/C=C/CN(C)Cc1coc2ccccc12 [Compound IA-34, (E)-N-methyl-N-[(benzofuran-3-yl)methylene]-3-(2-methoxyphenyl)-prop-2-en-1-amine] | > 1000
CN(C/C=C/c1ccc2ccccc2c1)Cc1coc2ccccc12 [Compound IA-26, (E)-N-methyl-N-[(benzofuran-3-yl)methylene]-3-(2-naphthyl)-prop-2-en-1-amine] | 6.4 ± 0.6
CN(C/C=C/c1cccc([N+](=O)[O-])c1)Cc1coc2ccccc12 [Compound IA-29, (E)-N-methyl-N-[(benzofuran-3-yl)methylene]-3-(3-nitrophenyl)-prop-2-en-1-amine] | > 1000
CN(C/C=C/c1ccc(C(F)(F)F)c(F)c1)Cc1coc2ccccc12 [Compound IA-9, (E)-N-methyl-N-[(benzofuran-3-yl)methylene]-3-(3-fluoro-4-trifluoromethyl-phenyl)prop-2-ene-1-the amine] | > 1000
CN(C/C=C/c1ccc(C#N)cc1)Cc1coc2ccccc12 [Compound IA-24, (E)-N-Methyl-N-[(benzofuran-3-yl)methylene]-3-(4-cyanophenyl)-prop-2-en-1-amine] | 80.1 ± 4.7
CN(C/C=C/c1ccccc1[N+](=O)[O-])Cc1coc2ccccc12 [Compound IA-22, (E)-N-methyl-N-[(benzofuran-3-yl)methylene]-3-(2-nitrophenyl)-prop-2-en-1-amine] | > 1000

Compound | IC50 [nM]
CN(C/C=C/c1cccc(Cl)c1)Cc1coc2ccccc12 [Compound IA-12, (E)-N-methyl-N-[(benzofuran-3-yl)methylene]-3-(3-chlorophenyl)prop-2-en-1-amine] | > 1000
CN(C/C=C/c1ccc(C(F)(F)F)cc1)Cc1csc2ccccc12 [Compound IA-41, (E)-N-(benzo[b]thiophen-3-ylmethyl)-N-methyl-3-(4-(trifluoromethyl)phenyl)prop-2-en-1-amine] | 52.1 ± 0.8
CCN(C/C=C/c1ccc(C(F)(F)F)cc1)Cc1coc2ccccc12 [Compound IB-2, (E)-N-ethyl-N-[(benzofuran-3-yl)methylene]-3-(4-trifluoromethylphenyl)-prop-2-en-1-amine] | > 1000
Cc1cccc(/C=C/CN(C)Cc2coc3ccccc23)c1 [Compound IA-37, (E)-N-methyl-N-[(benzofuran-3-yl)methylene]-3-(3-methylphenyl)-prop-2-en-1-amine] | > 1000
CN(C/C=C/c1ccc(C(F)(F)F)cc1)Cc1cc2ccccc2s1 [Compound IF-2, (E)-N-(benzo[b]thiophen-2-ylmethyl)-N-methyl-3-(4-(trifluoromethyl)phenyl)prop-2-en-1-amine] | 95.3 ± 1.6
CN(C/C=C/c1cccc(C(F)(F)F)c1)Cc1coc2ccccc12 [Compound IA-18, (E)-N-methyl-N-[(benzofuran-3-yl)methylene]-3-(3-trifluoromethylphenyl)-prop-2-en-1-amine] | > 1000
CN(C/C=C/c1cccc2ccccc12)Cc1coc2ccccc12 [Compound IA-10, (E)-N-methyl-N-[(benzofuran-3-yl)methylene]-3-(naphthalen-1-yl)prop-2-en-1-amine] | > 1000
CN(C/C=C/c1ccc(C(F)(F)F)cc1)Cc1coc2ccccc12 [Compound IA-2, (E)-N-methyl-N-[(benzofuran-3-yl)methylene]-3-(4-trifluoromethylphenyl)-prop-2-en-1-amine] | 9.8 ± 0.3
CC(C)N(C/C=C/c1ccc(C(F)(F)F)cc1)Cc1coc2ccccc12 [Compound IB-3, (E)-N-isopropyl-N-[(benzofuran-3-yl)methylene]-3-(4-trifluoromethylphenyl)-prop-2-en-1-amine] | > 1000
CN(C/C=C/c1cccs1)Cc1coc2ccccc12 [Compound IA-33, (E)-N-methyl-N-[(benzofuran-3-yl)methylene]-3-thiophen-2-en-1-amine] | > 1000
CN(C/C=C/c1ccccc1F)Cc1coc2ccccc12 [Compound IA-28, (E)-N-methyl-N-[(benzofuran-3-yl)methylene]-3-(2-fluorophenyl)-prop-2-en-1-amine] | > 1000
CN(C/C=C/c1ccc([N+](=O)[O-])cc1)Cc1coc2ccccc12 [Compound IA-16, (E)-N-methyl-N-[(benzofuran-3-yl)methylene]-3-(4-nitrophenyl)-prop-2-en-1-amine] | 9.5 ± 3.2
Cc1ccc(/C=C/CN(C)Cc2coc3ccccc23)cc1 [Compound IA-21, (E)-N-methyl-N-[(benzofuran-3-yl)methylene]-3-(4-methylphenyl)-prop-2-en-1-amine] | 9.9 ± 1.8
COc1ccc(/C=C/CN(C)Cc2coc3ccccc23)cc1F [Compound IA-38, (E)-N-methyl-N-[(benzofuran-3-yl)methylene]-3-(3-fluoro-4-methoxyphenyl)-prop-2-en-1-amine] | > 1000
CN(C/C=C/c1ccc(F)cc1)Cc1coc2ccccc12 [Compound IA-4, (E)-N-methyl-N-[(benzofuran-3-yl)methylene]-3-(4-fluorophenyl)prop-2-en-1-amine] | 74.1 ± 2.7
CN(C/C=C/c1ccc(Cl)cc1)Cc1coc2ccccc12 [Compound IA-3, (E)-N-methyl-N-[(benzofuran-3-yl)methylene]-3-(4-chlorophenyl)prop-2-en-1-amine] | 4.9 ± 0.1
CN(C/C=C/c1cccc(F)c1)Cc1coc2ccccc12 [Compound IA-19, (E)-N-methyl-N-[(benzofuran-3-yl)methylene]-3-(3-fluorophenyl)-prop-2-en-1-amine] | > 1000
CN(C/C=C/C=C/c1ccc(-c2ccccc2)cc1)Cc1coc2ccccc12 [Compound IA-39, (2E,4E)-5-([1,1′-biphenyl]-4-yl)-N-(benzofuran-3-ylmethyl)-N-methylpenta-2,4-dien-1-amine] | > 1000
CN(C/C=C/c1ccc(C(F)(F)F)cc1F)Cc1coc2ccccc12 [Compound IA-31, (E)-N-methyl-N-[(benzofuran-3-yl)methylene]-3-(2-fluoro-4-trifluoromethyl-phenyl)-prop-2-en-1-amine] | 9.2 ± 0.4
CN(C/C=C/c1ccc(C(C)(C)C)cc1)Cc1coc2ccccc12 [Compound IA-27, (E)-N-methyl-N-[(benzofuran-3-yl)methylene]-3-(4-tert-butylphenyl)-prop-2-en-1-amine] | > 1000
C/C=C/CN(C)Cc1coc2ccccc12 [Compound IA-23] | > 1000
